# Test: solvent given as SMILES
smiles,measurement,setting,value
COC(=O)C(Cc1ccc2oc(-c3ccc(-n4c5ccccc5c5ccccc54)cc3)nc2c1)NC(=O)OC(C)(C)C (centres undefined),emission maximum,in C1CCCCC1,362 nm
same,emission maximum,in C1CCOC1,429 nm
same,emission maximum,in C1COCCO1,400 nm
same,emission maximum,in CC1CCCO1,404.01 nm
same,emission maximum,in CC#N,447.01 nm
same,emission maximum,in CC(C)(C)O,421 nm
same,emission maximum,in CC(C)=O,432.99 nm
same,emission maximum,in CC(C)CC(C)(C)C,361.01 nm
same,emission maximum,in CC(C)O,431 nm
same,emission maximum,in CC(O)CO,455 nm
same,emission maximum,in CCCCCCCO,421.99 nm
same,emission maximum,in CCCCCCO,424 nm
same,emission maximum,in CCCCCO,409 nm
same,emission maximum,in CCCCO,430 nm
same,emission maximum,in CCO,445 nm
same,emission maximum,in CCOC(C)=O,409 nm
same,emission maximum,in CCOCC,402.32 nm
same,emission maximum,in CN(C)C=O,438.02 nm
same,emission maximum,in CO,465.98 nm
same,emission maximum,in CS(C)=O,445.99 nm
same,emission maximum,in Cc1ccccc1,391.01 nm
same,emission maximum,in OCCO,470.01 nm
CCCCCCCCCCCCn1nnc(-c2ccc(C#Cc3ccc(C#Cc4ccc(-c5nnn(CCCCCCCCCCCC)n5)cc4)c4nc5c6ccccc6c6ccccc6c5nc34)cc2)n1,emission maximum,in C1CCOC1,495 nm
same,emission maximum,in Cc1ccccc1,488 nm
same,emission maximum,in ClCCl,502 nm
COc1ccc2c(c1)CCC1=C(C#Cc3cc4ccccc4c4ccccc34)O[B-](F)(F)[O+]=C12,emission maximum,in ClCCl,500 nm
Clc1ccc(/C=C/c2ccc(-c3nc4c5cccnc5c5ncccc5c4[nH]3)cc2)cc1,emission maximum,in C1CCOC1,463 nm
same,emission maximum,in CC#N,471 nm
same,emission maximum,in CO,473 nm
same,emission maximum,in ClCCl,467 nm
CC(C)(C)c1ccc2c(c1)-c1c3c(c4c5c1-c1cc(C(C)(C)C)ccc1OB5Oc1ccc(C(C)(C)C)cc1-4)-c1cc(C(C)(C)C)ccc1OB3O2,emission maximum,in ClCCl,436 nm
FC(F)(F)c1ccc(-c2c3cccc4c5cccc6c(-c7ccc(C(F)(F)F)cc7)c7cccc8c9cccc2c9c(c34)c(c65)c78)cc1,emission maximum,in Cc1ccccc1,699 nm
CCC(C)(C)c1ccc2c(c1)C(CC)(CC)c1cc(-c3ccc4c(c3)C(CC)(CC)c3cc(C(C)(C)CC)ccc3-4)ccc1-2,emission maximum,in C1CCCCC1,371 nm
CCOC(=O)c1cc(C(=O)OCC)c2cc(N)ccc2n1,emission maximum,in CCO,537 nm
Cc1cccc(-c2c3ccccc3cc3ccccc23)n1,emission maximum,in ClCCl,418 nm
CC1(C)c2ccccc2N(c2ccc3c(c2)c(=O)c2cccc4c(=O)c5cc(N6c7ccccc7C(C)(C)c7ccccc76)ccc5n3c24)c2ccccc21,emission maximum,in Cc1ccccc1,549.35 nm
CCn1c2ccccc2c2c(N(c3ccccc3)c3ccccc3)cccc21,emission maximum,in ClCCl,418 nm
CCCCC(CC)COc1ccc2nc(-c3ccc(-c4c(C)noc4C)s3)sc2c1 (centres undefined),emission maximum,in ClCCl,415 nm
COc1ccc(N(c2ccc(/C=C(\C)c3ccccc3)cc2)c2ccc(/C=C(\C)c3ccccc3)cc2)cc1,emission maximum,in Cc1ccccc1,435 nm
CCC1=C(C)C(=O)n2c1cc1c(c(C)c(C(=O)OCC(C)C)n1CC(C)C)c2=O,emission maximum,in C1CCCCC1,437 nm
same,emission maximum,in CO,498 nm
same,emission maximum,in CS(C)=O,479 nm
same,emission maximum,in ClC(Cl)Cl,457 nm
same,emission maximum,in c1ccccc1,446 nm
COC(=O)c1ccc(C2=C3C=CC(C)=[N+]3[B-](F)(F)n3c(C)ccc32)cc1,emission maximum,in C1CCCCC1,533 nm
same,emission maximum,in C1CCOC1,536 nm
same,emission maximum,in CC#N,531 nm
same,emission maximum,in CCOC(C)=O,533 nm
same,emission maximum,in CO,533 nm
same,emission maximum,in Cc1ccccc1,538 nm
same,emission maximum,in ClC(Cl)Cl,538 nm
N#Cc1c(-c2ccccc2)cc(N2c3ccccc3Oc3ccccc32)cc1-c1ccccc1,emission maximum,in C1CCCCC1,455 nm
COc1ccc(-c2pc3ccccc3s2)cc1 (centres undefined),emission maximum,in CC#N,445 nm
CCCC1=Cc2nc1ccc1[nH]c(cc1CCC)c1nc(c(OC)cc3[nH]c2cc3CCC)C(CCC)=C1,emission maximum,in Cc1ccccc1,688 nm
N#Cc1ccc(/C=C/C=C/C2=NC3C(=O)NC(N)=NC3N2[C@H]2C[C@H](O)[C@@H](CO)O2)cc1 (some centres undefined),emission maximum,in C1COCCO1,486 nm
same,emission maximum,in CC#N,526 nm
same,emission maximum,in CO,522 nm
CC(C)(C)NC(=O)c1cc2ccccc2c2ccc3c4ccccc4c4ccccc4c3c12,emission maximum,in ClCCl,419 nm
O=Cc1ccc(C#CC(C#Cc2ccc(C=O)s2)=Cc2ccc(C=C(C#Cc3ccc(C=O)s3)C#Cc3ccc(C=O)s3)cc2)s1,emission maximum,in ClC(Cl)Cl,533 nm

# From the Deep4Chem optical property database
